Counter-ions that a name gives are not always drawn.
What was measured:
S.epidermidis = test: Quantitative germ count (re-isolation, surface method) after inoculating the test preparation; assay type: cell-based; settings: Ausgangskeimzahl 2,1 x 10^5 KBE/ml
In short: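 Test preparations (5 ml) inoculated with ca. 10^5 CFU/ml of each strain, one tube per time point. After 2, 6, 8, 24, 32, 48 and 72 h, cells pelleted, washed and resuspended in NaCl-peptone buffer, then spiral-plated on Caso agar and incubated at 33±2 °C up to 4 days. Detection limit 100 CFU/ml.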

Alle Testkeime = test: Overall assessment: time until all test germs are eliminated (count and enrichment); assay type: cell-based; settings: time after inoculation; all six test germs
Method: Escherichia (E.coli) Staphylococcus (S.aureus) Streptococcus (Sc.) Pneumoniae Pseudomonas (P.aeruginosa) Staphylococcus (S. epidermidis) Haemophilus (H. influenzae)
Die verschiedenen Testsubstanzen a. bis j. wurden jeweils zu 5 ml in sterile Zentrifugenröhrchen abgefüllt und mit ca. 10^5 KBE^*/ml (* = koloniebildende Einheiten) der oben genannten Testkeime kontaminiert. Pro Substanz wurde für jeden Testkeim und jede zu prüfende Testzeit ein separater Ansatz angeimpft, d.h.10 Testsubstanzen zu jeweils 7 Testzeiten und 6 Testkeime (= insgesamt 502 Testansätze). Nach 2, 6, 8, 24, 32, 48 und 72 Stunden wurde dann der jeweilige Testansatz 10 Minuten bei 3000 rpm abzentrifugiert. Der Überstand wurde dekantiert und das Pellet in 5 ml NaCl Peptonpuffer aufgenommen und resuspendiert. Die Suspension wurde erneut 10 Minuten bei 3000 rpm abzentrifugiert und 5 ml NaCl-Peptonpuffer aufgenommen und mittels Vortex homogenisiert.
Die anschließende Keimzahlbestimmung erfolgte im Oberflächenverfahren durch Ausspiralisieren eines 10011 Aliquots auf Caso-Agar bzw. für H. influenzae auf Kochblut-Agar. Die Platten wurden bei 33±2°C für max. 4 Tage bebrütet. Die Nachweisgrenze des Verfahrens liegt bei 100 KBE/ml.
Jeweils 2 ml der Testansätze wurden in 20 ml Caso-Bouillon oder für H. influenzae, in Fildes-Medium der Firma Becton Dickinson, ARt. […]

Compound | Ergebnis der Reisolierung (in KBE/ml) (S.epidermidis; 2 h after inoculation) [KBE/ml] | Ergebnis der Reisolierung (in KBE/ml) (S.epidermidis; 4 h after inoculation) [KBE/ml] | Ergebnis der Reisolierung (in KBE/ml) (S.epidermidis; 6 h after inoculation) [KBE/ml] | Ergebnis der Reisolierung (in KBE/ml) (S.epidermidis; 8 h after inoculation) [KBE/ml] | Ergebnis der Reisolierung (in KBE/ml) (S.epidermidis; 24 h after inoculation) [KBE/ml] | Ergebnis der Reisolierung (in KBE/ml) (S.epidermidis; 32 h after inoculation) [KBE/ml] | Ergebnis der Reisolierung (in KBE/ml) (S.epidermidis; 48 h after inoculation) [KBE/ml] | Ergebnis der Reisolierung (in KBE/ml) (S.epidermidis; 72 h after inoculation) [KBE/ml] | Testkeime nach Inokulation der Zubereitung auch qualitativ nicht mehr nachweisbar (Alle Testkeime) [Stunden]
Benzalkoniumchlorid [Benzalkoniumchlorid 0,0025 Gew.-%] | <100 | <100 | <100 | <100 | <100 | <100 | <100 | <100 | –
Benzalkoniumchlorid [Benzalkoniumchlorid 0,006 Gew.-%] | <100 | <100 | <100 | <100 | <100 | <100 | <100 | <100 | –
CCCCCCCCCCCC[N+](C)(C)Cc1ccccc1 [Benzalkoniumchlorid 0,005 Gew.-%, Benzododeciniumchlorid] | <100 | <100 | <100 | <100 | <100 | <100 | <100 | <100 | –
Benzalkoniumchlorid [Benzalkoniumchlorid 0,001 Gew.-%] | <100 | <100 | <100 | <100 | <100 | <100 | <100 | <100 | –
O=C(O)c1cn(C2CC2)c2cc(N3CCNCC3)c(F)cc2c1=O [Ciprofloxacin HCl 0,35 Gew.-%, Ciprofloxacin HCl, reference compound] | <100 | <100 | <100 | <100 | <100 | <100 | <100 | <100 | –
CC1COc2c(N3CCN(C)CC3)c(F)cc3c(=O)c(C(=O)O)cn1c23 (stereo not shown) [Ofloxacin 0,3 Gew.-%, Ofloxacin, reference compound] | <100 | <100 | <100 | <100 | <100 | <100 | <100 | <100 | 24

Source: patent EP1171107B1, “USE OF A PHARMACEUTICAL COMPOSITION IN THE MANUFACTURE OF A MEDICAMENT FOR THE TREATMENT OF PATHOLOGICAL CONDITIONS OF THE EYE CAUSED BY BACTERIA, VIRUSES, FUNGI, YEASTS AND PROTOZOA” (Dr. GERHARD MANN chem.-pharm. Fabrik GmbH, priority 1999, dated 2000)
